Source: patent publication US5104895A, “Platinum(II) complexes, their preparation and use as anti-tumor agents” (Boehringer Mannheim Italia S.p.A., priority 1988, dated 1992)

Key:
[1] = tested on: cervix epithelioma; test: MTT assay, cervix epithelioid carcinoma; format: cell-based, human; conditions: in vitro
Excerpt: The "in vitro" testing procedure has been based on the "MTT assay on human tumor cell lines" (T. Mosmann, J Immunol. Meth., 65, 55, 1983). According to N.C.I screening program for new anticancer drugs, the evaluation of the anti-tumour activity has been performed against groups of cell lines each representing a major category of human malignancy. Human cell (for ex. cervix epithelioid carcinoma, melanoma, fibrosarcoma and vulvar leiomyosarcoma cultures have been adapted to grow in complete RPMI 1640 medium; the compounds were added to 24 hours cultures and incubated for 72 and 160 hours.

[2] = tested on: L1210 resistant line; test: in vivo murine L1210 leukaemia / cisplatin resistant
Excerpt: (§1) "In vivo" experiments including: a murine leukaemia and murine L1210 leukaemia / cisplatin resistant (i.p. drug administration day 1 after i.p. injection of 10^6 tumour cells day 0); b) advanced M 5076 ovarian carcinoma in female mice (i.m. injection of 5.10^5 cell day 0, drug administration q7d×3) are based on classical models that allow a preliminary evaluation of efficacy and toxicity of the novel agent in comparison with a well-stated reference drug. The evaluated parameters are toxic death, median survival time (T/C %) and long term survivals (60 days).

[3] = tested on: murine L1210 leukaemia; test: in vivo murine L1210 leukaemia
Excerpt: as §1

[4] = tested on: M5076 ovarian carcinoma; test: advanced M 5076 ovarian carcinoma in female mice; format: in vivo
Excerpt: as §1

[5] = tested on: tumours in patients; conditions: human, in vivo; cited from earlier work
[6] = cited from earlier work
[7] = cisplatin at 7 and 10 mg/kg, i.p. day 1

cis[(1,1-diaminomethyl-cyclohexane)-3,3-(1,5,8,11,14,17-hexaoxacyclononadecane)cyclobutane]-1,1-dicarboxylate [compound D]
antitumour activity compared with cisplatin [1]: more active than cisplatin of about a log. order | cross resistance with cisplatin [2]: Lack of cross resistance with cisplatin | median survival time (T/C %) [2]: over 160%

N.N.[Cl][Pt][Cl] [cisplatin, cis-diammino-dichloro-platinum, reference compound]
long term survivals (60 days) [3, 7]: 1/10 | median survival time (T/C %) [3, 7]: 162% | median survival time (T/C %) [2]: 115% | body weight change ([4]; equieffective dose levels): marked body weight decrease | activity against head and neck squamous cell carcinoma and further listed tumors [5]: a certain activity | activity against lung tumors (non-small cell), osteogenic sarcoma, Hodgkins lymphoma, melanoma and mammary tumors [5]: a certain, even if limited, activity | antitumour activity in patients [5]: particularly effective in the treatment of genito-urinary tumours, of neck and head tumours | side-effects ([6]; following cisplatin use): important gastrointestinal and renal side-effects, haematologic and neurologic complications (ototoxicity)

NCCN.O=C([O-])C(CCOCCOCCO)C(=O)[O-].[Pt+2] [reference compound, cis(1,2-diaminoethane)-(8-hydroxy 3,6-dioxaoctane-1-yl-malonate) platinum (II), reference compound]
toxicity ([3]; at the higher dose level): heavily toxic

N.N.O=C([O-])C1(C(=O)[O-])CCC1.[Pt+2] [carboplatin]
activity against lung tumors (non-small cell), osteogenic sarcoma, Hodgkins lymphoma, melanoma and mammary tumors [5]: a certain, even if limited, activity | nephrotoxicity compared with cis-platin ([6]; human, in vivo): less nephrotoxic than cis-platin

(2R, 3R, 11R, 12R)-1,4-7,10,13,16-hexaoxacyclooctadecane-2,3,11,12-tetracarboxylate-bis- [compound B, (2R, 3R, 11R, 12R)-1,4-7,10,13,16-hexaoxacyclooctadecane-2,3,11,12-tetracarboxylate-bis-[cis(trans-d,l,-1,2)diamino-cyclohexane)-platinum(II)]]
median survival time (T/C %) ([3]; 20 mg/kg dose level, i.p. day 1): 170% | long term survivor values ([3]; 20 mg/kg dose level, 60 days): 2 | median survival time (T/C %) ([3]; 120 mg/kg): 200% | toxic deaths ([3]; 120 mg/kg): 2/10 | long term survivors ([3]; 120 mg/kg, 60 days): 2/10 | DL100 ([3]; i.p.): over 200 mg/kg | cross resistance with cisplatin [2]: Lack of cross resistance with cisplatin | median survival time (T/C %) [2]: over 160% | tumour growth inhibition potency ([4]; drug administration q7d×3): comparable with that of cisplatin | body weight change ([4]; mouse, in vivo): normal body weight increase
